From patent US9987321B2, “Use of flaxseed and flaxseed derivatives for treatment of neurological disorders and viral diseases” (The Trustees of the University of Pennsylvania, priority 2012, dated 2018)
Values belong to the molecule of their own block, whether it stands above or below them.

Experiments:
[1] = Reducing power antioxidant assay; conditions: compared to SDG
Description: The antioxidant activity SDG was determined by assessing its reducing power, an activity related to its ability to reduce an oxidized atom or molecule and compared with that of the natural antioxidants ascorbic acid and alpha-tocopherol (Panel A).

[2] = tested on: primary rat cortical neurons; assay: MAP2 cell-based ELISA of neuronal death and damage after ART compounds
Description: (§1) Relative neuronal damage as indicated by MAP2 cell-based ELISA in neurons treated with the indicated concentrations of ART compounds, ritonavir (RIT), Saquinavir (Sag), and Zidovudine (AZT). Cells were treated for 72 hours with ritonavir (10 μM or 25 μM), ritonavir (10 μM)+Saquinivir (1 μM), AZT (25 μM)+ritonavir+Saquinavir. One hour before and two hours after cART drug treatment, half of the wells of a 96 well plate of neuroglial cultures were also treated with secoisolariciresinol diglucoside (SDG) (25 μM, 50 μM, or 100 μM) where indicated. 72 hours later, a MAP2 cell-based ELISA assay was used to quantify neuronal death and damage. Untreated cultures in addition to vehicle (0.08% DMSO) treated cultures with and without SDG were used as controls. The value for untreated cultures was set to 100%, and SDG and cART treated bands are expressed as a percent change from untreated.
as §1, with “Cells” for “Relative neuronal damage as indicated by MAP2 cell-based ELISA in neurons treated with the indicated concentrations of ART compounds, ritonavir (RIT), Saquinavir (Sag), and Zidovudine (AZT). Cells”, “SDG” for “secoisolariciresinol diglucoside (SDG)”, “μM).” for “μM) where indicated.”

HIV-1 jago [3] = assay: HIV replication in monocyte-derived macrophages (RT activity, p24); format: cell-based; conditions: for viral replication as indicated by RT activity / viral replication as indicated by p24 concentrations: primary human MDMs, 9 days post-infection, ritonavir 0.1 μM, SDG 50 μM
Description: Primary human MDMs were infected with an HIV isolated from the CSF of a patient with confirmed HAND yielding robust reverse transcriptase activity (A) and p24 concentrations (B) after 9 days post-infection. […] Results have been confirmed in 2 distinct donors, 1 donor is shown. Three technical replicates are analyzed for RT assays (n=3, * p<0.0001).
(§2) PBMCs can be prepared from laboratory donors. PBMCs are activated with […] phytohemagglutinin for 3 days, and infected with HIV-1 jago, a strain of HIV1 isolated from the CSF of a patient with HAD. On the day of infection, cultures is treated with SDG over a range of doses (0.1, 1, 10, 100 μM SDG), vehicle, or left untreated. Viral replication is assessed by p24 ELISA at 3, 6, 9, 12 and 15 days post-infection. Cell viability of infected PBMCs can be monitored by trypan blue exclusion and p24 levels are normalized to the number of viable cells. The experiment is repeated in 3 donors. MDMs can be prepared as described previously and infected with HIV-1 jago. On the day of inoculation with HIV-1 jago cultures can be treated with 0.1, 1, 10 and 100 μM SDG, vehicle or left untreated. Viral replication is assessed on days 3, 6, 9, 12, and 15 by p24 ELISA. Cell viability is determined by trypan blue exclusion and p24 levels is normalized to the number of viable cells. The experiment is replicated in 3 donors.
To assess this effect, primary peripheral blood monocytes were harvested from healthy donors and differentiated them into macrophages in vitro. Monocytes were infected with the primary HIV isolate, jago. One day after infection, macrophages were treated with 25 μM or 50 μM SDG, the antiretroviral compound ritonavir (0.1 μM RIT), SDG and ritonavir together, the ritonavir vehicle, DMSO, or with no additional treatment. Supernatant from these macrophages was harvested 3, 6, 9, 12, and 15 days post infection and assayed for HIV reverse transcriptase activity (FIG. 5A, bar graph and FIG. 5B, Line graph).

HIV-1 jago [4] = assay: HIV replication in PBMCs (p24 ELISA); format: cell-based; conditions: dose dependent manner; 0.1, 1, 10, 100 μM SDG
Description: as §2

cortical rat neurons = assay: Neurotoxicity and oxidative stress (MAP2, DHE) from HIV-infected macrophage supernatants; format: cell-based
Description: Neurons (green) were pre-treated with 50 μM SDG 1 hour prior to exposure to HIV-infected macrophage supernatants (HIVMDM) at dilutions of 1:40 and 1:80. In the absence of SDG, there is marked reduction in MAP2 immunostaining (green) indicating neuronal damage and death (A). Labeling with dihydroethidium (red) indicates the presence of oxidative stress, which is apparent in HIVMDM treated cultures. Nuclei are labeled blue by DAPI. […] MAP2 levels are quantified in top graph (# p<0.01 compared to UT, * p<0.05 compared to respective HIV MDM). Oxidative stress (red-DHE) is quantified in bottom graph (# p<0.001, compared to HIVMDM1:40, p<0.05, compared to HIVMDM1:80, $ p<0.01 compared with UT.
Primary rat neuroglial cultures (FIG. 10, Panel A) and primary rat neuronal cultures (FIG. 10, Panel B) were treated with Supernatants from HIV-Infected macrophages (Jago) or Mock-infected macrophages (Mock) for 24 hours in the presence or absence of 25 or 50 μM SDG given 60 minutes prior to addition of the HIVMDM. Prior to fixation, cells were incubated with Dihydroethidium (DHE-red) for 30 minutes. Following fixation cells were stained for the neuronal specific marker MAP2 (green) and DAPI (blue). Representative images for each treatment are shown. DHE Fluorescence intensity was quantified from 6 fields for 3 slides per treatment, averaged, and normalized to the area of DAPI. Graphs of the average DHE staining intensity/DAPI area are plotted for each treatment group. The p values were generated using student's two-tailed t-test for equal variance. Bars on graphs represent median values of quantification by ImageJ algorithm. *P<0.05 vs Untreated (UT)-control group and Mock-control group; #P<0.05 vs Jago 1:40 treatment group. The results were obtained from at least three independent experiments.

[5] = tested on: nrf2-regulated protective enzymes; assay: qRT-PCR of antioxidant enzyme gene expression in brain tissues after oral SDG; format: in vivo, mice
Description: Indeed, the 1.0 mg dose was associated with a near 2-fold boost of hemeoxygenase 1 expression (HO-1) and quinone oxidoreductase 1 (NQO-1) expression in brain tissues (FIG. 14, Panel B).

Nrf2 = assay: Endogenous antioxidant response expression by qRT-PCR and immunoblot; format: cell-based; conditions: primary rat cortical neurons, SDG 50 μM, 2 or 48 hours
Description: Specifically, protein and RNA from primary rat cortical neurons treated with SDG at 50 μM or left untreated for 2 or 48 hours were analyzed for changes in expression of the endogenous antioxidant response by qRT-PCR and immunoblot.
Protein and RNA from primary rat cortical neurons treated with SDG at 50 μM or left untreated for 2 or 48 hours were analyzed for changes in expression of the endogenous antioxidant response by qRT-PCR and immunoblot.

Nrf2/ARE = Nrf2/ARE activation in non-neuronal cell types; format: cell-based; conditions: lung epithelial, endothelial and fibroblasts
[6] = DPPH free radical scavenging activity; conditions: compared to ascorbic acid and alpha-tocopherol
rat neuronal cultures = assay: MTT viability, indirect treatment (media from SDG-treated macrophages); format: cell-based; conditions: media from HIV-1 or Mock infected macrophages treated with SDG, 24 hours
Description: We performed a MTT (3-(4,5-dimethylthiazol-2-yl)-2,5-diphenyltetrazolium bromide) assay to measure the viability of cells through the production of insoluble formazan. […]. In these indirect studies media from HIV-1 infected or Mock infected macrophages treated with SDG was applied to neuronal cultures for 24 hours. Afterward cell viability was determined by the MTT assay which […] and is an indicator of mitochondrial activity. […] This study is a clear indicator of the non-neurotoxic effects of SDG in vitro.

[7] = tested on: rat cortical neuroglial cultures; assay: MTT viability, direct SDG treatment; format: cell-based; conditions: 24 hours with SDG
Description: In order to assess the effects on SDG in terms of mitochondrial respiration as an indicator of viability, an MTT assay was performed with rat cortical neuroglial cultures that were treated for 24 hours with SDG.

CCR5 = assay: Western blot of CCR5 expression on MDM; format: cell-based; conditions: SDG for 0 and 6 hours, time-dependent
Description: (§3) The objective of this study was to elucidate the modulatory effects of flaxseed lignans on macrophage expression of coreceptors through western blotting.
Expression of HIV co-receptor CCR5 on macrophage derived monocytes treated with SDG was evaluated. Following the same treatment protocol, MDM were treated with SDG for 0 and 6 hours.

CXCR4 = assay: Western blot of CXCR4 expression on MDM; format: cell-based
Description: as §3
Expression of HIV coreceptor CXCR4 on macrophage derived monocytes treated with SDG was evaluated. Following the same treatment protocol, MDM were treated with SDG for 0 and 6 hours. […] 25 μM to the 25 μM SDG treatment.

[8] = SDG by oral gavage; cited from earlier work
[9] = tested on: brain derived neurotrophic factor (BDNF); conditions: SDG by oral gavage; cited from earlier work
[10] = at least 500 mg SDG/day for approximately 8 weeks; cited from earlier work
[11] = 50 μM SDG 1 hour prior to HIVMDM 1:40 and 1:80
[12] = 1.0 mg SDG oral gavage once daily for 4 days, 4 hours post final feeding

concentration needed for half-maximal response (EC50) in reducing power, relative to SDG [1]: ~3 fold
SMILES: Cc1c(C)c2c(c(C)c1O)CC[C@@](C)(CCC[C@H](C)CCC[C@H](C)CCCC(C)C)O2 [A-toc, alpha-tocopherol]

concentration needed for half-maximal response (EC50) in reducing power, relative to SDG [1]: ~3 fold
SMILES: O=C1O[C@H]([C@@H](O)CO)C(O)=C1O [AA, ascorbic acid]

SMILES: COc1cc(C[C@@H](CO[C@@H]2O[C@H](CO)[C@@H](O)[C@H](O)[C@H]2O)[C@H](CO[C@@H]2O[C@H](CO)[C@@H](O)[C@H](O)[C@H]2O)Cc2ccc(O)c(OC)c2)ccc1O [SDG, secoisolariciresinol diglucoside]
attenuation of neuronal damage in response to ART compounds ([2]; 25 μM SDG 1 hour prior to ART compounds alone or in combination): significantly attenuated neuronal damage
reduction of ART-induced neuronal damage by combination therapy ([2]; SDG at 25 and 50 μM): reduced ART-induced neuronal damage
effect of SDG on ritonavir inhibition of HIV replication (reverse transcriptase activity) (HIV-1 jago [3]; 25 or 50 μM SDG with 0.1 μM ritonavir, 3-15 days post infection): did not block the ability of ritonavir to inhibit HIV replication
HIV replication (reverse transcriptase activity), SDG without ritonavir (HIV-1 jago [3]; 25 or 50 μM SDG, 3-15 days post infection): blocked HIV replication
viral replication in HIV-infected macrophages compared with ritonavir (HIV-1 jago [3]; FIG. 2): reduced viral replication to levels akin to the HIV protease inhibitor, ritonavir
HIV replication in MDMs (HIV-1 jago [3]; dose dependent manner, 0.1, 1, 10, 100 μM SDG): attenuates HIV replication
viral replication as indicated by RT activity (HIV-1 jago [3]): attenuated viral replication
viral replication as indicated by p24 concentrations (HIV-1 jago [3]): attenuated viral replication
HIV replication in PBMCs (HIV-1 jago [4]): attenuates HIV replication
neuron loss (MAP2 immunostaining) (cortical rat neurons; [11]): protected against neuron loss
oxidative stress by DHE (cortical rat neurons; [11]): reduced accumulation of oxidative stress
protection from HIV-stimulated macrophage-induced neurotoxicity (cortical rat neurons; 25 or 50 μM SDG 60 minutes prior to HIVMDM, 24 hours, presence or absence of glia): protects neurons
DHE staining (free radical production) in HIV-Jago-treated neurons (cortical rat neurons; presence and absence of glia): reduced DHE staining
hemeoxygenase 1 (HO-1) expression in brain tissues [5, 12]: ~2 fold
quinone oxidoreductase 1 (NQO-1) expression in brain tissues [5, 12]: ~2 fold
crossing of the blood-brain barrier ([5]; SDG given orally to mice): crosses the blood-brain barrier
induction of Nrf2 and its targets HO1, NQO1, GST1 (Nrf2): induced Nrf2 in neurons, as well as its prominent targets: HO1, NQO1, and GST1
activation of Nrf2/ARE, inducing NQO1 and HO1 (Nrf2/ARE): activates the Nrf2/ARE
DPPH free radical scavenging activity [6]: far superior antioxidant activity
neuronal cell viability (MTT), indirect treatment (rat neuronal cultures): no change in neuronal cell viability
neuronal cell viability (MTT), direct treatment [7]: no change in neuronal cell viability
HIV co-receptor CCR5 expression on MDM (CCR5): significant decrease
HIV coreceptor CXCR4 expression on MDM, dose dependence (CXCR4; 12 hour time point, 6. 25 μM to 25 μM SDG): dose-dependent decrease
HIV coreceptor CXCR4 expression on MDM (CXCR4; between the 0 and 6 hour time points, time-dependent): significant decrease
chronic stress as measured by immobility time induced by tail suspension stress [8]: decreased chronic stress
cortex levels of brain derived neurotrophic factor (BDNF) [9]: increase
effect on cardiovascular risk factors in humans [10]: positive effect

SMILES: CC(C)c1nc(CN(C)C(=O)N[C@H](C(=O)N[C@@H](Cc2ccccc2)C[C@H](O)[C@H](Cc2ccccc2)NC(=O)OCc2cncs2)C(C)C)cs1 [ritonavir, reference compound]
viral replication as indicated by RT activity (HIV-1 jago [3]): attenuated viral replication
viral replication as indicated by p24 concentrations (HIV-1 jago [3]): attenuated viral replication

SMILES: CC(C)(C)NC(=O)[C@@H]1C[C@@H]2CCCC[C@@H]2CN1C[C@@H](O)[C@H](Cc1ccccc1)NC(=O)[C@H](CC(N)=O)NC(=O)c1ccc2ccccc2n1 [saquinavir, reference compound]
neuronal damage as indicated by loss of MAP2 staining ([2]; ART compounds alone and in combinations, 72 hours): significant neuronal damage
